{"source": "patent US20050203575A1", "about": "“Skin microactivation system and method” (Unilever Home & Personal Care USA, Division of Conopco, Inc., priority 2004, published 2005)", "test_system": "cellular retinoic acid binding protein II (CRABP II)", "experiment": "Clinical trial: CRABP II in human epidermis after topical retinol with or without microneedle treatment (Western blotting)", "assay_type": "in vivo", "settings": "once a day for four days", "description": "Ten subjects between the ages of 25 and 50 were recruited into a clinical trial to test the efficacy of microneedles 58 after having given informed consent to a protocol approved by an internal review board. Needles 58 that are acupuncture needles (Seirin, 0.12 mm×30 mm) were fixed in narrow diameter plastic tubes, i.e., positioning collars 60, with adhesive so that needle tips protruded approximately 250 microns beyond the end of positioning collar 60. This arrangement prevented excessive penetration during use. The protocol provided for the application on the skin of the lower back of a vehicle alone or vehicle containing either 0.05% or 0.1% retinol. In vehicle alone sites and 0.05% retinol sites microneedles 58 were applied at a density of 100 strikes per square centimeter. Adhesive rings with an internal area of 1.5 square centimeters were used to define the treatment areas. Microneedle device 10 was held in the operator's hand and lightly impacted on the subject's skin. Aliquots of twenty microliters of treatment solution were applied to the relevant sites immediately after microneedling. Sites were treated once a day for four days. On the fifth day epidermal samples were taken with an abrasive probe and placed in extraction buffer (see above). Samples were analysed with polyacrylamide gel electrophoresis and Western blotting for the presence of cellular retinoic acid binding protein II (CRABP II), a protein considered to be a marker for retinoid activity in skin.", "data": [{"smiles": "CC1=C(/C=C/C(C)=C/C=C/C(C)=C/CO)C(C)(C)CCC1", "note": "[retinol]", "values": [{"measurement": "CRABP II expression in epidermis, microneedle + 0.05% retinol versus 0.05% retinol alone", "setting": "microneedles 100 strikes per square centimeter + 0.05% retinol, P<0.05", "value": "increased CRABP II expression above that seen with 0.05% retinol alone"}, {"measurement": "CRABP II expression elevation, microneedles + 0.05% retinol versus 0.1% retinol alone", "setting": "microneedles 100 strikes per square centimeter + 0.05% retinol, statistically significant", "value": "greater than that associated with the 0.1% retinol alone treatment"}, {"measurement": "CRABP II expression in epidermis", "setting": "vehicle alone, 0.05% or 0.1% retinol on skin of lower back, sampled on fifth day", "value": "dose-dependent increase in CRABP II"}]}]}
